Experimental data taken from US11866450B2, “Modulators of Cystic Fibrosis Transmembrane Conductance regulator, pharmaceutical compositions, methods of treatment, and process for making the modulators” (priority 2018, dated 2024).

Biological target: CFTR-mediated chloride transport (Homo sapiens, UniProt P13569)
Type: cell-based
Conditions: enteroid cells incubated with test compound 18-24 hours, acute 10 μM forskolin and 300 nM Compound III; for Max. Activity: % of chloride transport with 3 μM Compound A, 3 μM Compound II and 300 nM acute Compound III triple combination control
Method: Base medium (ADF+++) consisted of Advanced DMEM/Ham's F12, 2 mM Glutamax, 10 mM HEPES, […] penicillin/streptomycin.
Intestinal enteroid maintenance medium (IEMM) consisted of ADF+++, 1× B27 supplement, 1× N2 supplement, 1.25 mM N-acetyl cysteine, 10 mM Nicotinamide, 50 ng/mL hEGF, 10 nM Gastrin, 1 μg/mL hR-spondin-1, 100 ng/mL hNoggin, TGF-b type 1 inhibitor A-83-01, 100 μg/mL Primocin, 10 μM P38 MAPK inhibitor SB202190.
Bath 1 Buffer consisted of 1 mM MgCl2, 160 mM NaCl, 4.5 mM KCl, 10 mM HEPES, 10 mM Glucose, 2 mM CaCl2).
Chloride Free Buffer consisted of 1 mM Magnesium Gluconate, 2 mM Calcium Gluconate, 4.5 mM Potassium Gluconate, 160 mM Sodium Gluconate, 10 mM HEPES, 10 mM Glucose.
Bath1 Dye Solution consisted of Bath 1 Buffer, 0.04% Pluronic F127, 20 μM Methyl Oxonol, 30 μM CaCCinh-A01, 30 μM Chicago Sky Blue.
Chloride Free Dye Solution consisted of Chloride Free Buffer, 0.04% Pluronic F127, 20 μM Methyl Oxonol, 30 μM CaCCinh-A01, 30 μM Chicago Sky Blue.
Chloride Free Dye Stimulation Solution consisted of Chloride Free Dye Solution, 10 μM forskolin, 100 μM IBMX, and 300 nM Compound III.
Human intestinal epithelial enteroid cells were obtained from the Hubrecht Institute for Developmental Biology and Stem Cell Research, Utrecht, The Netherlands and expanded in T-Flasks as previously described (Dekkers J F, Wiegerinck C L, de Jonge H R, Bronsveld I, Janssens H M, de Winter-de Groot K M, Brandsma A M, de Jong N W M, Bijvelds M J C, Scholte B J, Nieuwenhuis E E S, van den Brink S, Clevers H, van der Ent C K, Middendorp S and M Beekman J M. A functional CFTR assay using primary cystic fibrosis intestinal organoids. Nat Med. 2013 July; 19(7):939-45).
Cells were recovered in cell recovery solution, collected by centrifugation at 650 rpm for 5 min at 4° C., resuspended in TryPLE and incubated for 5 min at 37° C. Cells were then collected by centrifugation at 650 rpm for 5 min at 4° C. and resuspended in IEMM containing 10 μM ROCK inhibitor (RI) (trans-4-[(1R)-1-aminoethyl]-N-4-pyridinylcyclohexanecarboxamide). The cell suspension was passed through a 40 μm cell strainer and resuspended at 1×10^6 cells/mL in IEMM containing 10 μM RI. Cells were seeded at 5000 cells/well into multi-well plates and incubated for overnight at 37° C., 95% humidity and 5% CO2 prior to assay.
Enteroid cells were incubated with test compound in IEMM for 18-24 hours at 37° C., 95% humidity and 5% CO2. Following compound incubations, a membrane potential dye assay was employed using a FLIPR Tetra to directly measure the potency and efficacy of the test compound on CFTR-mediated chloride transport following acute addition of 10 μM forskolin and 300 nM Compound III. Briefly, cells were washed 5 times in Bath 1 Buffer. Bath 1 Dye Solution was added and the cells were incubated for 25 min at room temperature. Following dye incubation, cells were washed 3 times in Chloride Free Dye Solution. Chloride transport was initiated by addition of Chloride Free Dye Stimulation Solution and the fluorescence signal was read for 15 min. The CFTR-mediated chloride transport for each condition was determined from the AUC of the fluorescence response to acute forskolin and 300 nM Compound III stimulation. Chloride transport was then expressed as a percentage of the chloride transport following treatment with 3 μM Compound A, 3 μM Compound II and 300 nM acute Compound III triple combination control (% Activity).

CFTR-mediated chloride transport, sequence (P13569 whole entry, looked up): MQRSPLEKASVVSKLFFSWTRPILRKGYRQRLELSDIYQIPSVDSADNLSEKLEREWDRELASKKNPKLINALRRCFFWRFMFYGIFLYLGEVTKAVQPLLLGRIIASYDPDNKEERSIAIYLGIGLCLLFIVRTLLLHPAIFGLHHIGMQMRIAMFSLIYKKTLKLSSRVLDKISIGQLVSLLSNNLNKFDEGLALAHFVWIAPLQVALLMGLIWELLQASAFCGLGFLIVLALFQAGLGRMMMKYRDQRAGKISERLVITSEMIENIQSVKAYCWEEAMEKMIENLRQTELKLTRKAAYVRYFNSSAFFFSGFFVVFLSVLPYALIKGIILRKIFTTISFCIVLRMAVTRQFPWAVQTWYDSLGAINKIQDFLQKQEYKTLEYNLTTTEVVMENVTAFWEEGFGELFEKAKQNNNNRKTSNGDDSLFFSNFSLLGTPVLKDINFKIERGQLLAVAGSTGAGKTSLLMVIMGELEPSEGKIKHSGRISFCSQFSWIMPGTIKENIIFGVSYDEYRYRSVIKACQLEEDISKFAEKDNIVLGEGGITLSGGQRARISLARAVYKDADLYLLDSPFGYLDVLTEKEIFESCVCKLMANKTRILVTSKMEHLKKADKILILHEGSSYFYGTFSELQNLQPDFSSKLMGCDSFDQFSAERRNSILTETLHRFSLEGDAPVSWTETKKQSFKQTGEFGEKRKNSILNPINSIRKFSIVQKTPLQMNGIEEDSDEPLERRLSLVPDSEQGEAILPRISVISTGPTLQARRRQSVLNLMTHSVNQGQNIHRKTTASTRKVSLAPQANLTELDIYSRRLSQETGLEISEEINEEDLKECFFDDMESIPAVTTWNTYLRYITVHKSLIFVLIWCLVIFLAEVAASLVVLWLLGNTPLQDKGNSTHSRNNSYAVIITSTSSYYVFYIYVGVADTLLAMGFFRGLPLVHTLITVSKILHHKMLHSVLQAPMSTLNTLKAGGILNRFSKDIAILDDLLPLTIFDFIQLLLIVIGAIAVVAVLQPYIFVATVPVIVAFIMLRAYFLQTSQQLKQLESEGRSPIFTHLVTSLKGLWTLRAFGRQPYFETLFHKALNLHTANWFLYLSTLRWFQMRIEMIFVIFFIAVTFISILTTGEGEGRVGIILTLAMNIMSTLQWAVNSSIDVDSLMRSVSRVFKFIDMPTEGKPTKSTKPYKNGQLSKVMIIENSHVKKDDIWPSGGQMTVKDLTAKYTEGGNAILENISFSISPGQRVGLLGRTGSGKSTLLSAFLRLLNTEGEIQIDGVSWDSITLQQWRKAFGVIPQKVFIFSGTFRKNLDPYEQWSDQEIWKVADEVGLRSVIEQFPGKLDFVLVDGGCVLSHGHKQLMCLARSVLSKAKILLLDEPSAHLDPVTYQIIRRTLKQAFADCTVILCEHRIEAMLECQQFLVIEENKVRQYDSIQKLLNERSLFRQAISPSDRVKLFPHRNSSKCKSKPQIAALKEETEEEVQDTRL

Compound	EC50	Max. Activity
CC1(C)C[C@H]2CCCCCNc3cccc(n3)S(=O)(=O)NC(=O)c3ccc(-n4ccc(OCCC5(C(F)(F)F)CC5)n4)nc3N1C2 (single isomer, unassigned) [Compound 64, 12,12-dimethyl-8-(3-{2-[1-(trifluoromethyl)cyclopropyl]ethoxy}-1H-pyrazol-1-yl)-2λ^6-thia-3,9,11,20,25-pentaazatetracyclo[19.3.1.111,14.05,10]hexacosa-1(24),5,7,9,21(25),22-hexaene-2,2,4-trione]	< 1000 nM	++ (++ is 30-60%)
CC1(C)C[C@@H]2CCCNc3cccc(n3)S(=O)(=O)NC(=O)c3ccc(-n4ccc(OC[C@@H](O)C5C6(CC6)C56CC6)n4)nc3N1C2 (single isomer, unassigned) [Compound 294]	1000 to 3000 nM	+++ (+++ is >60%)
CC1(C)C[C@H]2CCCNc3cccc(n3)S(=O)(=O)NC(=O)c3ccc(-n4ccc(OCC5C6(CC6)C56CC6)n4)nc3N1C2 (single isomer, unassigned) [Compound 106, 8-[3-({dispiro[2.0.2.1]heptan-7-yl}methoxy)-1H-pyrazol-1-yl]-12,12-dimethyl-2λ^6-thia-3,9,11,18,23-pentaazatetracyclo[17.3.1.111,14.05,10]tetracosa-1(22),5,7,9,19(23),20-hexaene-2,2,4-trione]	< 1000 nM	+++ (+++ is >60%)
CN1CCC[C@@H]2CCC(C)(C)N2c2nc(-n3ccc(OCCC4(C(F)(F)F)CC4)n3)ccc2C(=O)NS(=O)(=O)c2cccc1n2 [Compound 11, (15R)-12,12,19-trimethyl-8-(3-{2-[1-(trifluoromethyl)cyclopropyl]ethoxy}-1H-pyrazol-1-yl)-2λ^6-thia-3,9,11,19,24-pentaazatetracyclo[18.3.1.05,10.011,15]tetracosa-1(24),5(10),6,8,20,22-hexaene-2,2,4-trione]	< 1000 nM	+++ (+++ is >60%)
Cc1c2cnn1CCCC[C@H]1CN(c3nc(-n4ccc(OCCC5(C(F)(F)F)CC5)n4)ccc3C(=O)NS2(=O)=O)C(C)(C)C1 (single isomer, unassigned) [Compound 80, 21,21,23-Trimethyl-4-(3-{2-[1-(trifluoromethyl)cyclopropyl]ethoxy}-1H-pyrazol-1-yl)-10λ^6-thia-1,3,9,13,14-pentaazatetracyclo[17.2.1.111,14.02,7]tricosa-2,4,6,11(23),12-pentaene-8,10,10-trione]	> 3000 nM	+ (+ is <30%)
CC1(C)C[C@H]2CCCNc3cccc(n3)S(=O)(=O)NC(=O)c3ccc(-n4ccc(OCC5C6(CC6)C56CC6)n4)nc3N1C2 (single isomer, unassigned) [Compound 107, 8-[3-({dispiro[2.0.2.1]heptan-7-yl}methoxy)-1H-pyrazol-1-yl]-12,12-dimethyl-2λ^6-thia-3,9,11,18,23-pentaazatetracyclo[17.3.1.111,14.05,10]tetracosa-1(22),5,7,9,19(23),20-hexaene-2,2,4-trione]	< 1000 nM	+++ (+++ is >60%)
CC1(C)C[C@@H]2CCCNc3ccc(O)c(n3)S(=O)(=O)NC(=O)c3ccc(-n4ccc(OCCC5C6(CC6)C56CC6)n4)nc3N1C2 [Compound 260, (14S)-8-[3-(2-{dispiro[2.0.2.1]heptan-7-yl}ethoxy)-1H-pyrazol-1-yl]-22-hydroxy-12,12-dimethyl-2λ^6-thia-3,9,11,18,23-pentaazatetracyclo[17.3.1.111,14.05,10]tetracosa-1(22),5,7,9,19(23),20-hexaene-2,2,4-trione]	< 1000 nM	+++ (+++ is >60%)
Cc1nn2cc1S(=O)(=O)NC(=O)c1ccc(-n3ccc(OCCC4(C(F)(F)F)CC4)n3)nc1N1C[C@H](CCCC2)CC1(C)C (single isomer, unassigned) [Compound 91, 12,21,21-Trimethyl-4-(3-{2-[1-(trifluoromethyl)cyclopropyl]ethoxy}-1H-pyrazol-1-yl)-10λ^6-thia-1,3,9,13,14-pentaazatetracyclo[17.2.1.111,14.02,7]tricosa-2,4,6,11(23),12-pentaene-8,10,10-trione]	> 3000 nM	+ (+ is <30%)
CC1(C)C[C@H]2CCCn3ccc(n3)S(=O)(=O)NC(=O)c3ccc(N4CC[C@H](OCCC5(C(F)(F)F)CC5)C4=O)nc3N1C2 (single isomer, unassigned) [Compound 192, 20,20-dimethyl-4-(2-oxo-3-{2-[1-(trifluoromethyl)cyclopropyl]ethoxy}pyrrolidin-1-yl)-10λ^6-thia-1,3,9,14,22-pentaazatetracyclo[16.2.1.111,14.02,7]docosa-2,4,6,11(22),12-pentaene-8,10,10-trione]	< 1000 nM	+++ (+++ is >60%)
CC1(C)C[C@@H]2CCCNc3nc(ccc3O)S(=O)(=O)NC(=O)c3ccc(-n4ccc(OCCCC5(C(F)(F)F)CC5)n4)nc3N1C2 [Compound 255, (14S)-20-hydroxy-12,12-dimethyl-8-(3-{3-[1-(trifluoromethyl)cyclopropyl]propoxy}-1H-pyrazol-1-yl)-2λ^6-thia-3,9,11,18,23-pentaazatetracyclo[17.3.1.111,14.05,10]tetracosa-1(22),5,7,9,19(23),20-hexaene-2,2,4-trione]	< 1000 nM	++ (++ is 30-60%)
Cc1c2cnn1CCCC1CN(c3nc(-n4ccc(OCC(C)(C)C(F)(F)F)n4)ccc3C(=O)NS2(=O)=O)C(C)(C)C1 (single isomer, unassigned) [Compound 286, 20,20,22-trimethyl-4-[3-(3,3,3-trifluoro-2,2-dimethylpropoxy)-1H-pyrazol-1-yl]-10λ^6-thia-1,3,9,13,14-pentaazatetracyclo[16.2.1.111,14.02,7]docosa-2,4,6,11(22),12-pentaene-8,10,10-trione]	< 1000 nM	+ (+ is <30%)
CC1(C)C[C@H]2CCCCOc3ccc(cc3)S(=O)(=O)NC(=O)c3ccc(-n4ccc(OCCC5(C(F)(F)F)CC5)n4)nc3N1C2 (single isomer, unassigned) [Compound 95, 12,12-dimethyl-8-(3-{2-[1-(trifluoromethyl)cyclopropyl]ethoxy}-1H-pyrazol-1-yl)-19-oxa-2λ^6-thia-3,9,11-triazatetracyclo[18.2.2.111,14.05,10]pentacosa-1(22),5,7,9,20,23-hexaene-2,2,4-trione]	< 1000 nM	++ (++ is 30-60%)
CC1(C)C[C@@H]2CCCNc3cccc(n3)S(=O)(=O)NC(=O)c3ccc(-n4ccc(OC[C@@H](O)CC5(C(F)(F)F)CC5)n4)nc3N1C2 (single isomer, unassigned) [Compound 283]	< 1000 nM	+++ (+++ is >60%)
CC1(C)C[C@@H]2CN1c1nc(-n3ccc(OCCC4C5(CC5)C45CC5)n3)ccc1C(=O)NS(=O)(=O)c1cccc(n1)NCC(F)(F)C2 (single isomer, unassigned) [Compound 304, 8-[3-(2-{dispiro[2.0.2.1]heptan-7-yl}ethoxy)-1H-pyrazol-1-yl]-16,16-difluoro-12,12-dimethyl-2λ^6-thia-3,9,11,18,23-pentaazatetracyclo[17.3.1.111,14.05,10]tetracosa-1(22),5,7,9,19(23),20-hexaene-2,2,4-trione]	< 1000 nM	+++ (+++ is >60%)
